Experimental data reported in patent publication US20230093099A1, “COMPOUNDS AND METHODS OF TREATING CANCERS” (CULLGEN (SHANGHAI), INC., priority 2019, published 2023).

tested on: RS4;11 cells; experiment: Cell viability assay (CellTiter-Glo) in RS4;11 cells; assay type: cell-based; conditions: Homo sapiens, 72 h; RS4;11 ALL cells treated for three days; read-out: cell viability inhibition IC50
In short: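 RS4;11 cells seeded at 5000 per well, exposed for 3 days to 8- or 12-point 3-fold serial dilutions. Viability read by CellTiter-Glo luminescence; IC50 fitted by nonlinear least-squares regression.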

`Cc1cnc(Nc2ccc(N3CCN(CC(=O)NCCOCCOCCOCCOCCOCCNc4cccc5c4C(=O)N(C4CCC(=O)NC4=O)C5=O)CC3)cc2)nc1Nc1cccc(S(=O)(=O)NC(C)(C)C)c1` (centres unmarked) [JA-224, 2-(4-(4-((4-((3-(N-(tert-butyl)sulfamoyl)phenyl)amino)-5-methylpyrimidin-2-yl)amino)phenyl)piperazin-1-yl)-N-(17-((2-(2,6-dioxopiperidin-3-yl)-1,3-dioxoisoindolin-4-yl)amino)-3,6,9,12,15-pentaoxaheptadecyl)acetamide] and `O=C1CCC(N2C(=O)c3ccc(NCCCCC(=O)N4CCC(n5cc(-c6cnc7cccc(-c8cc(F)c(CN9CCOCC9)c(F)c8)c7n6)cn5)CC4)cc3C2=O)C(=O)N1` (centres unmarked) [JA-182, 5-((5-(4-(4-(8-(3,5-difluoro-4-(morpholinomethyl)phenyl)quinoxalin-2-yl)-1H-pyrazol-1-yl)piperidin-1-yl)-5-oxopentyl)amino)-2-(2,6-dioxopiperidin-3-yl)isoindoline-1,3-dione] cannot be ordered by IC50: less than 0.1 µM for the first, less than 0.1 µM for the second.

same assay, conditions: Homo sapiens, 72 h; RS4;11 cells; cell viability, 3 days, CellTiter-Glo; read-out: IC50

Going from `Cc1cnc(Nc2ccc(N3CCN(CC(=O)NCCOCCOCCOCCOCCOCCNc4cccc5c4C(=O)N(C4CCC(=O)NC4=O)C5=O)CC3)cc2)nc1Nc1cccc(S(=O)(=O)NC(C)(C)C)c1` (centres unmarked) [JA-224, 2-(4-(4-((4-((3-(N-(tert-butyl)sulfamoyl)phenyl)amino)-5-methylpyrimidin-2-yl)amino)phenyl)piperazin-1-yl)-N-(17-((2-(2,6-dioxopiperidin-3-yl)-1,3-dioxoisoindolin-4-yl)amino)-3,6,9,12,15-pentaoxaheptadecyl)acetamide] to `Cc1cnc(Nc2ccc(N3CCN(C(=O)CCCNc4ccc5c(c4)C(=O)N(C4CCC(=O)NC4=O)C5=O)CC3)cc2)nc1Nc1cccc(S(=O)(=O)NC(C)(C)C)c1` (centres unmarked) [JA-227, N-(tert-butyl)-3-((2-((4-(4-(4-((2-(2,6-dioxopiperidin-3-yl)-1,3-dioxoisoindolin-5-yl)amino)butanoyl)piperazin-1-yl)phenyl)amino)-5-methylpyrimidin-4-yl)amino)benzenesulfonamide], the IC50 rises from 0.105 µM to 3.11 µM (30-fold).

First: Cc1ncsc1-c1ccc(CNC(=O)[C@@H]2C[C@@H](O)CN2C(=O)[C@@H](NC(=O)COCCOCCNC(=O)CN2CCN(c3ccc(Nc4nc5cccc(-c6ccc(S(C)(=O)=O)cc6)n5n4)cc3)CC2)C(C)(C)C)cc1 [JA-134, (2S,4R)-1-((S)-2-(tert-Butyl)-14-(4-(4-((5-(4-(methylsulfonyl)phenyl)-[1,2,4]triazolo[1,5-a]pyridin-2-yl)amino)phenyl)piperazin-1-yl)-4,13-dioxo-6,9-dioxa-3,12-diazatetradecanoyl)-4-hydroxy-N-(4-(4-methylthiazol-5-yl)benzyl)pyrrolidine-2-carboxamide]
Second: Cc1ncsc1-c1ccc(CNC(=O)[C@@H]2C[C@@H](O)CN2C(=O)[C@@H](NC(=O)CCOCCOCCNC(=O)CN2CCN(c3ccc(Nc4nc5cccc(-c6ccc(S(C)(=O)=O)cc6)n5n4)cc3)CC2)C(C)(C)C)cc1 [JA-135, (2S,4R)-1-((S)-14-(tert-Butyl)-1-(4-(4-((5-(4-(methylsulfonyl)phenyl)-[1,2,4]triazolo[1,5-a]pyridin-2-yl)amino)phenyl)piperazin-1-yl)-2,12-dioxo-6,9-dioxa-3,13-diazapentadecan-15-oyl)-4-hydroxy-N-(4-(4-methylthiazol-5-yl)benzyl)pyrrolidine-2-carboxamide]
The IC50 of the first is lower: 4.31 µM for the first, greater than 10 µM for the second.

`O=C(CN1CCC(n2cc(-c3cnc4cccc(-c5cc(F)c(CN6CCOCC6)c(F)c5)c4n3)cn2)CC1)NCCCCCCCNc1cccc2c1C(=O)N(C1CCC(=O)NC1=O)C2=O` (centres unmarked) [JA-148, 2-(4-(4-(8-(3,5-Difluoro-4-(morpholinomethyl)phenyl)quinoxalin-2-yl)-1H-pyrazol-1-yl)piperidin-1-yl)-N-(7-((2-(2,6-dioxopiperidin-3-yl)-1,3-dioxoisoindolin-4-yl)amino)heptyl)acetamide] and `O=C1CCC(N2C(=O)c3cccc(NCCCCCCCC(=O)N4CCC(n5cc(-c6cnc7cccc(-c8cc(F)c(CN9CCOCC9)c(F)c8)c7n6)cn5)CC4)c3C2=O)C(=O)N1` (centres unmarked) [JA-038, 4-[[8-[4-[4-[8-[3,5-Difluoro-4-(morpholinomethyl)phenyl]quinoxalin-2-yl]pyrazol-1-yl]-1-piperidyl]-8-oxo-octyl]amino]-2-(2,6-dioxo-3-piperidyl)isoindoline-1,3-dione] cannot be ordered by IC50: greater than 10 µM for the first, greater than 10 µM for the second.

Compared with `Cc1ncsc1-c1ccc(CNC(=O)[C@@H]2C[C@@H](O)CN2C(=O)[C@@H](NC(=O)CCOCCOCCOCCOCCOCCC(=O)N2CCN(c3ccc(Nc4nc5cccc(-c6ccc(S(C)(=O)=O)cc6)n5n4)cc3)CC2)C(C)(C)C)cc1` [JA-071, (2S,4R)-1-((S)-2-(tert-Butyl)-22-(4-(4-((5-(4-(methylsulfonyl)phenyl)-[1,2,4]triazolo[1,5-a]pyridin-2-yl)amino)phenyl)piperazin-1-yl)-4,22-dioxo-7,10,13,16,19-pentaoxa-3-azadocosanoyl)-4-hydroxy-N-(4-(4-methylthiazol-5-yl)benzyl)pyrrolidine-2-carboxamide], `Cc1ncsc1-c1ccc(CNC(=O)[C@@H]2C[C@@H](O)CN2C(=O)[C@@H](NC(=O)CCCCCCCCCC(=O)N2CCN(c3ccc(Nc4nc5cccc(-c6ccc(S(C)(=O)=O)cc6)n5n4)cc3)CC2)C(C)(C)C)cc1` [JA-081, 4-Hydroxy-1-{2-[11-(4-{4-[5-(4-methanesulfonyl-phenyl)-[1,2,4]triazolo[1,5-a]pyridin-2-ylamino]-phenyl}-piperazin-1-yl)-11-oxo-undecanoylamino]-3,3-dimethyl-butyryl}-pyrrolidine-2-carboxylic acid 4-(4-methyl-thiazol-5-yl)-benzylamide] is higher in IC50: 0.96 µM for the first, greater than 10 µM for the second. The first is the more potent here.

Compared with `CS(=O)(=O)c1ccc(-c2cccc3nc(Nc4ccc(N5CCN(C(=O)CCCNc6ccc7c(c6)C(=O)N(C6CCC(=O)NC6=O)C7=O)CC5)cc4)nn23)cc1` (centres unmarked) [JA-216, 2-(2,6-Dioxopiperidin-3-yl)-5-((4-(4-(4-((5-(4-(methylsulfonyl)phenyl)-[1,2,4]triazolo[1,5-a]pyridin-2-yl)amino)phenyl)piperazin-1-yl)-4-oxobutyl)amino)isoindoline-1,3-dione], `CS(=O)(=O)c1ccc(-c2cccc3nc(Nc4ccc(N5CCN(C(=O)CCOCCNc6ccc7c(c6)C(=O)N(C6CCC(=O)NC6=O)C7=O)CC5)cc4)nn23)cc1` (centres unmarked) [JA-195, 2-(2,6-Dioxopiperidin-3-yl)-5-((2-(3-(4-(4-((5-(4-(methylsulfonyl)phenyl)-[1,2,4]triazolo[1,5-a]pyridin-2-yl)amino)phenyl)piperazin-1-yl)-3-oxopropoxy)ethyl)amino)isoindoline-1,3-dione] is higher in IC50: 3.41 µM for the first, greater than 10 µM for the second.

First: O=C1CCC(N2C(=O)c3ccc(NCCCCC(=O)N4CCC(n5cc(-c6cnc7cccc(-c8cc(F)c(CN9CCOCC9)c(F)c8)c7n6)cn5)CC4)cc3C2=O)C(=O)N1 (centres unmarked) [JA-182, 5-((5-(4-(4-(8-(3,5-difluoro-4-(morpholinomethyl)phenyl)quinoxalin-2-yl)-1H-pyrazol-1-yl)piperidin-1-yl)-5-oxopentyl)amino)-2-(2,6-dioxopiperidin-3-yl)isoindoline-1,3-dione]
Second: Cn1c(=O)n(C2CCC(=O)NC2=O)c2cccc(NCCCCCC(=O)N3CCC(n4cc(-c5cnc6cccc(-c7cc(F)c(CN8CCOCC8)c(F)c7)c6n5)cn4)CC3)c21 (centres unmarked) [JA-282, 3-(4-((6-(4-(4-(8-(3,5-Difluoro-4-(morpholinomethyl)phenyl)quinoxalin-2-yl)-1H-pyrazol-1-yl)piperidin-1-yl)-6-oxohexyl)amino)-3-methyl-2-oxo-2,3-dihydro-1H-benzo[d]imidazol-1-yl)piperidine-2,6-dione]
The IC50 of the first is lower: 0.0138 µM for the first, greater than 0.5 µM for the second. The first is the more potent here.

`CS(=O)(=O)c1ccc(-c2cccc3nc(Nc4ccc(N5CCN(CC(=O)NCCOCCNc6cccc7c6C(=O)N(C6CCC(=O)NC6=O)C7=O)CC5)cc4)nn23)cc1` (centres unmarked) [JA-110, N-(2-(2-((2-(2,6-Dioxopiperidin-3-yl)-1,3-dioxoisoindolin-4-yl)amino)ethoxy)ethyl)-2-(4-(4-((5-(4-(methylsulfonyl)phenyl)-[1,2,4]triazolo[1,5-a]pyridin-2-yl)amino)phenyl)piperazin-1-yl)acetamide] and `CS(=O)(=O)c1ccc(-c2cccc3nc(Nc4ccc(N5CCN(CC(=O)NCCCNc6cccc7c6C(=O)N(C6CCC(=O)NC6=O)C7=O)CC5)cc4)nn23)cc1` (centres unmarked) [JA-111, N-(3-((2-(2,6-Dioxopiperidin-3-yl)-1,3-dioxoisoindolin-4-yl)amino)propyl)-2-(4-(4-((5-(4-(methylsulfonyl)phenyl)-[1,2,4]triazolo[1,5-a]pyridin-2-yl)amino)phenyl)piperazin-1-yl)acetamide] cannot be ordered by IC50: greater than 10 µM for the first, greater than 10 µM for the second.

Going from `CS(=O)(=O)c1ccc(-c2cccc3nc(Nc4ccc(N5CCN(C(=O)CCCCCOc6ccc7c(c6)C(=O)N(C6CCC(=O)NC6=O)C7)CC5)cc4)nn23)cc1` (centres unmarked) [JA-277, 3-(6-((6-(4-(4-((5-(4-(Methylsulfonyl)phenyl)-[1,2,4]triazolo[1,5-a]pyridin-2-yl)amino)phenyl)piperazin-1-yl)-6-oxohexyl)oxy)-1-oxoisoindolin-2-yl)piperidine-2,6-dione] to `Cn1c(=O)n(C2CCC(=O)NC2=O)c2cccc(NCCCCC(=O)N3CCN(c4ccc(Nc5nc6cccc(-c7ccc(S(C)(=O)=O)cc7)n6n5)cc4)CC3)c21` (centres unmarked) [JA-290, 3-(3-Methyl-4-((5-(4-(4-((5-(4-(methylsulfonyl)phenyl)-[1,2,4]triazolo[1,5-a]pyridin-2-yl)amino)phenyl)piperazin-1-yl)-5-oxopentyl)amino)-2-oxo-2,3-dihydro-1H-benzo[d]imidazol-1-yl)piperidine-2,6-dione], the IC50 rises from 0.447 µM to greater than 0.5 µM. The first is the more potent here.

`Cc1ncsc1-c1ccc(CNC(=O)[C@@H]2C[C@@H](O)CN2C(=O)[C@@H](NC(=O)CCCCCCNC(=O)CN2CCN(c3ccc(Nc4nc5cccc(-c6ccc(S(C)(=O)=O)cc6)n5n4)cc3)CC2)C(C)(C)C)cc1` [JA-123, (2S,4R)-1-((S)-3,3-Dimethyl-2-(7-(2-(4-(4-((5-(4-(methylsulfonyl)phenyl)-[1,2,4]triazolo[1,5-a]pyridin-2-yl)amino)phenyl)piperazin-1-yl)acetamido)heptanamido)butanoyl)-4-hydroxy-N-(4-(4-methylthiazol-5-yl)benzyl)pyrrolidine-2-carboxamide] and `CS(=O)(=O)c1ccc(-c2cccc3nc(Nc4ccc(N5CCN(CC(=O)NCCOCCNc6ccc7c(c6)C(=O)N(C6CCC(=O)NC6=O)C7=O)CC5)cc4)nn23)cc1` (centres unmarked) [JA-212, N-(2-(2-((2-(2,6-Dioxopiperidin-3-yl)-1,3-dioxoisoindolin-5-yl)amino)ethoxy)ethyl)-2-(4-(4-((5-(4-(methylsulfonyl)phenyl)-[1,2,4]triazolo[1,5-a]pyridin-2-yl)amino)phenyl)piperazin-1-yl)acetamide] cannot be ordered by IC50: greater than 10 µM for the first, greater than 10 µM for the second.
